# Test system: HL60 cells
# Test: Anti-proliferation on HL60 cells (CellTiter-Glo, 3 days)
# Type: cell-based
# Conditions: Homo sapiens, HL-60, 72 h, 3 days incubation, CTG luminescence, IC50 by XLfit, read-out: HL60 cells Proliferation inhibitory activity
# Procedure: HL60 cells (Cell Bank of Chinese Academy of Sciences) in the logarithmic growth phase were counted and plated evenly in a 96-well transparent bottom white plate at 20000 cells per well and 100 μL per well.
# A certain amount of the compound of the present invention was weighed and diluted with DMSO to a 10 mM stock solution. The culture medium RPMI-1640 (meilunbio, MA0215) corresponding to the cells were taken, and the compound was diluted to the concentration required by the test, shaken gently and mixed evenly. 50 μL of the gradient dilution of the diluted compound was added to each well of the plated cells, and 50 μL of 0.1% DMSO was added to the control group. The plate was shaken gently, mixed evenly and incubated in a cell culture incubator for 3 days.
# • 3.1 The CellTiter-Glo™ (CTG) (purchased from Promega, Cat. No. G9242) reagent was taken in advance from the −20° C. refrigerator and equilibrated to room temperature in the dark. Cell Titer-Glo buffer and Cell Titer-Glo substrate were mixed at a ratio of 1:1 to prepare a CTG detection reagent. • 3.2 The 96-well plate was taken out and inspected under a microscope for growth. • 3.3 The bottom of the 96-well plate was tagged with white paper, and then the plate was wrapped with tin foil paper, shaken at 37° C. at 300 r for 10 min and mixed evenly. • 3.4. 50 μL of CTG detection reagent was added to each well, Luminescence signal was detected using a microplate reader Biotek Synergy Hi, and the inhibition rate was calculated. IC50 values of the compounds were calculated by XLfit 5.5.0 software to evaluate the proliferation inhibitory activity on HL60 cells.
row,IC50,SMILES
1,175 nM,O=C1CCC(N2Cc3cc(OCCC4CCN(c5ncc(-c6cccc(Cl)c6)cc5C(F)(F)F)CC4)ccc3C2=O)C(=O)N1 (centres unmarked) [Compound A133]
2,58 nM,O=C1CCC(N2Cc3cc(C(=O)NCC4CCN(C(=O)NCCn5c6ccccc6c6cccnc65)CC4)ccc3C2=O)C(=O)N1 (centres unmarked) [Compound A2]
3,120 nM,O=C1CCC(N2Cc3cc(CNCC4CCN(c5ncc(-n6c7ccccc7c7ccccc76)cc5C(F)(F)F)CC4)ccc3C2=O)C(=O)N1 (centres unmarked) [Compound A129]
4,6660 nM,O=C1CCC(NC(=O)c2ccc(CNCC3CCN(c4ncc(-c5cccc(Cl)c5)cc4C(F)(F)F)CC3)cc2F)C(=O)N1 (centres unmarked) [Compound A158]
5,1.09 nM,COc1cccc(-c2cnc(N3CCC(F)(C(=O)NCc4ccc5c(c4)CN(C4CCC(=O)NC4=O)C5=O)CC3)c(F)c2)c1 (centres unmarked) [Compound A119]
6,3.7 nM,O=C1CCC(N2Cc3cc(C(=O)NCC4CCN(c5ncc(-c6cccc7ccccc67)o5)CC4)ccc3C2=O)C(=O)N1 (centres unmarked) [Compound A27]
7,10.9 nM,O=C1CCC(N2Cc3cc(CNCC4CCN(c5cc(F)c(-c6cccc(Cl)c6)cn5)CC4)ccc3C2=O)C(=O)N1 (centres unmarked) [Compound A101]
8,0.8 nM,O=C1CCC(N2Cc3cc(CNCC4CCN(c5ncc(-c6cccc(Cl)c6)cc5F)CC4(F)F)ccc3C2=O)C(=O)N1 (centres unmarked) [Compound A88]
9,8.37 nM,COc1cccc(-c2cnc(N3CCC(CCNc4ccc5c(c4)CN(C4CCC(=O)NC4=O)C5=O)CC3)c(C(F)(F)F)c2)c1 (centres unmarked) [Compound A132]
10,2.6 nM,O=C1CCC(N2Cc3cc(CNCC4(F)CCN(c5ncc(-c6cccc(Cl)c6)cc5F)CC4)ccc3C2=O)C(=O)N1 (centres unmarked) [Compound A84]
11,116 nM,O=C1CCC(n2nnc3ccc(CNCC4CCN(c5ncc(-c6cccc(Cl)c6)cc5C(F)(F)F)CC4)cc3c2=O)C(=O)N1 (centres unmarked) [Compound A154]
12,3360 nM,O=C1CCC(c2coc3ccc(CNCC4CCN(c5ncc(-c6cccc(Cl)c6)cc5C(F)(F)F)CC4)cc23)C(=O)N1 (centres unmarked) [Compound A150]
13,6 nM,O=C1CCC(N2Cc3cc(NC(=O)CC4CCN(CC(=O)Nc5cccc6ccccc56)CC4)ccc3C2=O)C(=O)N1 (centres unmarked) [Compound A9]
14,752 nM,COc1cccc(-c2cnc(N3CCC(CNCc4scc5c4CN(C4CCC(=O)NC4=O)C5=O)CC3)c(C(F)(F)F)c2)c1 (centres unmarked) [Compound A144]
15,< 0.2 nM,O=C1CCC(N2Cc3cc(NC(=O)CC4CCN(c5ccc(-c6cccc(C(F)(F)F)c6)cn5)CC4)ccc3C2=O)C(=O)N1 (centres unmarked) [Compound A58]
16,9370 nM,O=C1C[C@@H](N2Cc3cc(CNCC4CCN(c5ncc(-c6cccc(F)c6)cc5C(F)(F)F)CC4)ccc3C2=O)C(=O)N1 [Compound A173]
17,0.54 nM,Cc1ccc(N2CCN(Cc3ccc(C(=O)NCc4ccc5c(c4)CN(C4CCC(=O)NC4=O)C5=O)cc3)CC2)cc1Cl (centres unmarked) [Compound A130]
18,7.4 nM,O=C(CN1CCC(CC(=O)Nc2ccc3c(c2)CN(C2CCC(=O)NC2=O)C3=O)CC1)NCCc1cccc2ccccc12 (centres unmarked) [Compound A10]
19,1.5 nM,O=C1CCC(N2Cc3cc(CNCC4CCN(c5ncc(-c6cc(F)cc(Cl)c6)cc5C(F)(F)F)CC4)ccc3C2=O)C(=O)N1 (centres unmarked) [Compound A115]
20,1570 nM,O=C1C[C@@H](N2Cc3cc(CNCC4CCN(c5ncc(-c6cccc(Cl)c6)cc5C(F)(F)F)CC4)ccc3C2=O)C(=O)N1 [Compound A171]
21,< 0.2 nM,O=C1CCC(N2Cc3cc(NC(=O)CC4CCN(c5ccc(-c6cccc(Cl)c6)nc5)CC4)ccc3C2=O)C(=O)N1 (centres unmarked) [Compound A57]
22,1.76 nM,O=C1CCC(N2Cc3cc(CNCC4(F)CCN(c5ncc(-c6cccc(F)c6)cc5F)CC4)ccc3C2=O)C(=O)N1 (centres unmarked) [Compound A122]
23,< 0.2 nM,Cc1cc(-c2cccc(Cl)c2)cnc1N1CCC(CNCc2ccc3c(c2)CN(C2CCC(=O)NC2=O)C3=O)CC1 (centres unmarked) [Compound A76]
24,2670 nM,O=C1CCC(NC(=O)c2ccc(C(=O)NCC3CCN(c4ncc(-c5cccc(Cl)c5)cc4C(F)(F)F)CC3)cc2)C(=O)N1 (centres unmarked) [Compound A166]
25,3.97 nM,O=C1CCC(N2Cc3cc(CNCC4CCN(c5ncc(-c6cccc(Cl)c6)cc5C(F)F)CC4)ccc3C2=O)C(=O)N1 (centres unmarked) [Compound A118]
26,192 nM,O=C(CN1CCC(CNC(=O)c2ccc3c(c2)CN(C2CCC(=O)NC2=O)C3=O)CC1)NCc1cccc2ccccc12 (centres unmarked) [Compound A6]
27,< 0.2 nM,O=C1CCC(N2Cc3cc(NC(=O)CC4CCN(c5ccc(-c6cccc7ccccc67)cn5)CC4)ccc3C2=O)C(=O)N1 (centres unmarked) [Compound A35]
28,0.6 nM,CC(C)c1cnc(N2CCC(CC(=O)Nc3ccc4c(c3)CN(C3CCC(=O)NC3=O)C4=O)CC2)nc1 (centres unmarked) [Compound A50]

row,IC50,SMILES
1,0.3 nM,O=C1CCC(N2Cc3cc(NC(=O)CC4CCN(c5cnc(-c6cccc7ccccc67)nc5)CC4)ccc3C2=O)C(=O)N1 (centres unmarked) [Compound A33]
2,< 3.04 nM,Cc1cccc(-c2cnc(N3CCC(CNCc4ccc5c(c4)CN([C@@H]4CCC(=O)NC4=O)C5=O)CC3)c(C(F)(F)F)c2)c1 [Compound A124]
3,2.6 nM,O=C1CCC(N2Cc3cc(C(=O)NCC4CCN(c5ncc(-c6ccc7ccccc7c6)cn5)CC4)ccc3C2=O)C(=O)N1 (centres unmarked) [Compound A39]
4,12 nM,O=C1CCC(N2Cc3cc(NC(=O)CC4CCN(c5ccc(-c6cccc7ccccc67)nn5)CC4)ccc3C2=O)C(=O)N1 (centres unmarked) [Compound A32]
5,4.69 nM,COc1cccc(-c2cnc(N3CCC(F)(CNCc4ccc5c(c4)CN(C4CCC(=O)NC4=O)C5=O)CC3)c(C(F)(F)F)c2)c1 (centres unmarked) [Compound A121]
6,36.1 nM,O=C1CCC(N2Cc3cc(CNCC4C5CCC4CN(c4ncc(-c6cccc(Cl)c6)cc4C(F)(F)F)C5)ccc3C2=O)C(=O)N1 (centres unmarked) [Compound A91]
7,21 nM,O=C1CCC(N2Cc3cc(C(=O)NCC4CCN(c5ccnc(-c6cccc7ccccc67)n5)CC4)ccc3C2=O)C(=O)N1 (centres unmarked) [Compound A20]
8,< 0.2 nM,O=C1CCC(N2Cc3cc(C(=O)NCC4CCN(c5ccc(-c6nccc7ccccc67)cn5)CC4)ccc3C2=O)C(=O)N1 (centres unmarked) [Compound A45]
9,0.7 nM,O=C1CCC(N2Cc3cc(NC(=O)CC4CCN(c5ncc(-c6ccccn6)cn5)CC4)ccc3C2=O)C(=O)N1 (centres unmarked) [Compound A59]
10,4 nM,O=C1CCC(N2Cc3cc(NC(=O)CC4CCN(c5cccc(-c6cccc7ccccc67)c5)CC4)ccc3C2=O)C(=O)N1 (centres unmarked) [Compound A22]
11,0.3 nM,O=C1CCC(N2Cc3cc(C(=O)NCC4CCN(c5ccc(-c6cccc7ccccc67)nc5)CC4)ccc3C2=O)C(=O)N1 (centres unmarked) [Compound A36]
12,4.3 nM,O=C1CCC(N2Cc3cc(C(=O)NCC4CCN(c5ccc(-c6ccc7ccccc7c6)cn5)CC4)ccc3C2=O)C(=O)N1 (centres unmarked) [Compound A40]
13,< 0.2 nM,O=C1CCC(N2Cc3cc(NC(=O)CC4CCN(c5ccc(-c6cccc(Cl)c6)cn5)CC4)ccc3C2=O)C(=O)N1 (centres unmarked) [Compound A56]
14,< 0.2 nM,O=C1CCC(N2Cc3cc(NC(=O)CC4CCN(c5cnc(-c6cccc7ccccc67)cn5)CC4)ccc3C2=O)C(=O)N1 (centres unmarked) [Compound A31]
15,< 0.2 nM,O=C1CCC(N2Cc3cc(NC(=O)CC4CCN(c5ncc(-c6ccccc6Cl)cn5)CC4)ccc3C2=O)C(=O)N1 (centres unmarked) [Compound A54]
16,7230 nM,O=C1CCC(NS(=O)(=O)c2ccc(CNCC3CCN(c4ncc(-c5cccc(Cl)c5)cc4C(F)(F)F)CC3)cc2)C(=O)N1 (centres unmarked) [Compound A164]
17,1100 nM,O=C1CCC(NC(=O)c2ccc(CNCC3CCN(c4ncc(-c5cccc(Cl)c5)cc4C(F)(F)F)CC3)c(Br)c2)C(=O)N1 (centres unmarked) [Compound A160]
18,2.48 nM,O=C1CC[C@H](N2Cc3cc(CNCC4CCN(c5ncc(-c6cccc(F)c6)cc5F)CC4)ccc3C2=O)C(=O)N1 [Compound A125]
19,3 nM,COc1cc(Cl)cc(-c2cnc(N3CCC(CNCc4ccc5c(c4)CN(C4CCC(=O)NC4=O)C5=O)CC3)c(C(F)(F)F)c2)c1 (centres unmarked) [Compound A113]
20,60 nM,O=C1CCC(N2Cc3cc(NC(=O)CC4CCN(c5ncc(-c6ccncc6)cn5)CC4)ccc3C2=O)C(=O)N1 (centres unmarked) [Compound A60]
21,11500 nM,O=C1CCC(N2C(=O)c3cccc4c(CNCC5CCN(c6ncc(-c7cccc(F)c7)cc6F)CC5)ccc2c34)C(=O)N1 (centres unmarked) [Compound A175]
22,190 nM,O=C1CCC(N2Cc3cc(NC(=O)CC4CCN(C(=O)NCc5cccc6ccccc56)CC4)ccc3C2=O)C(=O)N1 (centres unmarked) [Compound A1]
23,1 nM,O=C1CCC(N2Cc3cc(NC(=O)CC4CCN(c5cccc(-c6cccc7ccccc67)n5)CC4)ccc3C2=O)C(=O)N1 (centres unmarked) [Compound A15]
24,3040 nM,O=C1CCC(N2Cc3c(csc3CNCC3CCN(c4ncc(-c5cccc(Cl)c5)cc4C(F)(F)F)CC3)C2=O)C(=O)N1 (centres unmarked) [Compound A143]
25,7.9 nM,O=C1CCC(N2Cc3cc(NC(=O)CC4CCN(CC(=O)N5CCCc6ccccc65)CC4)ccc3C2=O)C(=O)N1 (centres unmarked) [Compound A3]
26,4350 nM,Cn1nc(N2CCC(=O)NC2=O)c2ccc(CNCC3CCN(c4ncc(-c5cccc(Cl)c5)cc4C(F)(F)F)CC3)cc21 [Compound A177]
27,9.04 nM,O=C1CC[C@@H](N2Cc3cc(CNCC4(F)CCN(c5ncc(-c6cccc(Cl)c6)cc5C(F)(F)F)CC4)ccc3C2=O)C(=O)N1 [Compound A128]

row,SMILES,IC50
1,O=C1CCC(N2Cc3cc(CNCC4CC5CCC(C4)N5c4ncc(-c5cccc(Cl)c5)cc4C(F)(F)F)ccc3C2=O)C(=O)N1 (centres unmarked) [Compound A90],45.6 nM

# Source: patent US20250059162A1, “MULTI-PROTEIN DEGRADATION AGENT HAVING IMIDE SKELETON” (SUZHOU KINTOR PHARMACEUTICALS, INC., priority 2021, published 2025)
